The target of one experiment is T1, human TG1 (Homo sapiens, UniProt P22735).
T1 construct: purchased Zedira
T1 sequence (P22735 1-817): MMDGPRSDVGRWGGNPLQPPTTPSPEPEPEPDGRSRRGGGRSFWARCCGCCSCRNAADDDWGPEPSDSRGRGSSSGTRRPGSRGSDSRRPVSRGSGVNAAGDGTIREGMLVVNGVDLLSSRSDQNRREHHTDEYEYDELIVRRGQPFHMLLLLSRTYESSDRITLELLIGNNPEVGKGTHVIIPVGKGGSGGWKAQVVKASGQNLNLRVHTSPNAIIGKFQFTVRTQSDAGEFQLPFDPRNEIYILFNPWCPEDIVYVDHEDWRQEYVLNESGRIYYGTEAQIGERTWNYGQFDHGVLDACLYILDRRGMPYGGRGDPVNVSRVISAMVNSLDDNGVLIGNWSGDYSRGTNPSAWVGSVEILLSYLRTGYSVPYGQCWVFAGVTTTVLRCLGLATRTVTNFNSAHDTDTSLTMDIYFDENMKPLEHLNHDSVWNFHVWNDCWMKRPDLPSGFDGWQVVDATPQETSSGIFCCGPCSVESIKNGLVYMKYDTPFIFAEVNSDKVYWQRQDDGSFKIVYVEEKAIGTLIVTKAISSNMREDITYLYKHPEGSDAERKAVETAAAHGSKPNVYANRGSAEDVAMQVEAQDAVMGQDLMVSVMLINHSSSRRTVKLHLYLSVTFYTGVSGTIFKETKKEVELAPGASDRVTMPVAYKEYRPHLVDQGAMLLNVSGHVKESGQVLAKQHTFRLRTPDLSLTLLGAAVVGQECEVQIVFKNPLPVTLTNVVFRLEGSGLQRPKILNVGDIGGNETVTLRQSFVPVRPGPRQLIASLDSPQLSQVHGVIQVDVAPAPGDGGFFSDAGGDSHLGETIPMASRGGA
Nature of the experiment: Inhibition of recombinant Transglutaminase activity (fluorescent substrate), human TG1. It is filed as biochemical. As to conditions: human recombinant TG1, Fig 2B; read-out: IC50 to inhibit TG1. The protocol:
(§1) The potency and specificity of TG2 inhibitors was assessed with various recombinant TGs, as previously described. The reaction buffer (50 mM Tris, 100 mM NaCl, 10 mM CaCl2, 5 mM H-Gly-OMe*HCl (glycinemethylestherhydrochloride, Sigma), 5 mM hexadimethinbromide (Sigma), 9.1 mM DTT, pH 7.5) was heated to 37°C in a 96 well plate. Then 50 μM of the TG substrate Abz-NE(CAD-DNP)EQVSPLTLLK-OH (Zedira) was added. 1 μg/ml recombinant TG (human TG1, human (hTG2) / mouse TG2 (mTG2) or human Factor XIII (FXIII); Zedira) were added. The two lyophilized TG2 inhibitors (see Fig 1 for chemical structure) BJJF078 (3,4-Dimethoxy-N-(5-[4-(acryloylamino)piperidine-1-sulfonyl]-naphthalen-1-yl)-benzamide, kindly provided by Dr S. El Alaoui, Covalab, France) and ERW1041E (2-[(3-Bromo-4,5-dihydro-isoxazol-5-ylmethyl)-carbamoyl]-pyrrolidine-1—carboxylic acid quinolin-3-ylmethyl ester, kindly provided by Prof C. Khosla, Stanford University, USA) were dissolved in DMSO (stock solution: 54 mM) and stored at -80°C. These stocks were further diluted and various concentrations of the TG2 inhibitors (0.3 nM to 100 μM), were added to the wells (final DMSO concentration per well: 0.06%). The relative increase in fluorescence emission, correlating with enzymatic activity, was measured over 4 h with a fluorimeter (Excitation: 320nm, emission: 405 nm; Fluostar, GMB).

Experiment [1] deals with T2, recombinant mouse TG2 (mTG2) (Mus musculus, UniProt P21981).
T2 construct: purchased Zedira
T2 sequence (P21981 1-686): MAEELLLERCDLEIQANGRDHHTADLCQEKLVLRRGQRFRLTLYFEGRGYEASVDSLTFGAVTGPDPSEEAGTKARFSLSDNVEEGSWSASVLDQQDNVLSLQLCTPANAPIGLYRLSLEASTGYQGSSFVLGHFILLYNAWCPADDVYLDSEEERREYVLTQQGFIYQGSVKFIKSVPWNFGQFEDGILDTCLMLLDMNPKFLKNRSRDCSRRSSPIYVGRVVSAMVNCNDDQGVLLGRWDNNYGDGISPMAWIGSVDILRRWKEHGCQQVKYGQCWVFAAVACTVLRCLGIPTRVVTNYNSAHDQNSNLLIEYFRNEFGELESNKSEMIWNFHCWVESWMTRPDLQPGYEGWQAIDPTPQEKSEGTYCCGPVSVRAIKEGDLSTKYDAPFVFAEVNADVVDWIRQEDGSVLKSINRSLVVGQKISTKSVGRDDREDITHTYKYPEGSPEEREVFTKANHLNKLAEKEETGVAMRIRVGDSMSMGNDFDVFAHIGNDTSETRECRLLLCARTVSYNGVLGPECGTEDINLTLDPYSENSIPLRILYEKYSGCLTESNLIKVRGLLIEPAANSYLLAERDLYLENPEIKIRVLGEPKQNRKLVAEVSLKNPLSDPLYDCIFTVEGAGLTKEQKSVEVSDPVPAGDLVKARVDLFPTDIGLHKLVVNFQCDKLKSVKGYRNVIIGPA
The experiment is described as follows: Inhibition of recombinant Transglutaminase activity (fluorescent substrate), mouse TG2. It is filed as biochemical. The conditions noted are these: recombinant mouse TG2, Fig 2A. How it is done:
as §1

The subject of a further experiment is EAE C57BL/6 mice. Nature of the experiment: MOG35-55 induced EAE in C57BL/6 mice, treatment with TG2 inhibitors. As to conditions: for loss of body weight compared to vehicle / severity of motor symptoms compared to vehicle: 25 mg/kg i.p. twice daily from onset of EAE symptoms. It is filed as in vivo, mouse. The text has this:
All animal experiments were approved by the animal ethical committee of the VU University Medical Center and carried out within the animal facility of the Vrije Universiteit Amsterdam (protocol number ANW14-02). C57BL/6 (C57BL/6JOlaHsd) mice were purchased from Harlan (The Netherlands) at an age of 10 weeks and acclimatized to the new environment with water and food access ad libitum for 2 weeks before EAE induction. Humane endpoints were taken into account to prevent unnecessary suffering of the animals.
Active EAE was induced with the myelin oligodendrocyte glycoprotein peptide amino acids 35-55 (MOG35-55) from a EAE induction kit (Hooke laboratories), according to the provided protocol. In short, mice were injected subcutaneously in the upper and lower back with 100 μl of an emulsion of MOG35-55 in complete Freund’s adjuvant (CFA, containing heat inactivated Mycobacterium tuberculosis) each. At 3 hours and 26 hours after the subcutaneous injection of the emulsion, mice received an intraperitoneal injection of 150 ng pertussis toxin dissolved in PBS (volume: 0.1 ml). Disease symptoms and bodyweight were assessed daily starting from day 7 after immunization according to the following scale: 0 no disease, 0.5: partial tail weakness, 1: tail paralysis, 2: hind limb weakness, 3: partial hind limb paralysis, 4: complete hind limb paralysis, 5: moribund, dead.
The mice were injected twice daily with BJJF078 (n = 11) or ERW1041 (n = 12), starting from the onset of EAE symptoms until the end of the experiment (day 21/day 28 after immunization). The EAE animals were injected intraperitoneally with an inhibitor dose of 25 mg/kg bodyweight (i.e. ~100 μl) containing 20% DMSO, while the corresponding control groups (n = 12 and n = 10) were injected with PBS in 20% DMSO.

pIC50: −log10 of the molar value.

As for `C=CC(=O)NC1CCN(S(=O)(=O)c2cccc3c(NC(=O)c4ccc(OC)c(OC)c4)cccc23)CC1` [BJJF078, 3,4-Dimethoxy-N-(5-[4-(acryloylamino)piperidine-1-sulfonyl]-naphthalen-1-yl)-benzamide], the pIC50 on human TG1 is 6.80. Also, in experiment [1], the pIC50 was 7.27. In the experiment with EAE C57BL/6 mice, the “loss of body weight compared to vehicle” value was “no differences” and the “severity of motor symptoms compared to vehicle” value is “no differences”.

With `O=C(NCC1CC(Br)=NO1)C1CCCN1C(=O)OCc1cnc2ccccc2c1` (stereo not drawn) [ERW1041E, 2-[(3-Bromo-4,5-dihydro-isoxazol-5-ylmethyl)-carbamoyl]-pyrrolidine-1—carboxylic acid quinolin-3-ylmethyl ester], on human TG1, the negative logarithm of the IC50 (pIC50) is 6.36. Further, the pIC50 in experiment [1] is 5.17. In the experiment on EAE C57BL/6 mice, the “loss of body weight compared to vehicle” value is recorded as “not affected” and the “severity of motor symptoms compared to vehicle” value is “modest but significant reduction”. The “average maximal disease score” value in the experiment on EAE C57BL/6 mice (25 mg/kg i.p. twice daily from onset, scale 0-5, vehicle 3.9) was 3.4 score.

(Values after paper PMC5918173, “Characterization of Transglutaminase 2 activity inhibitors in monocytes in vitro and their effect in a mouse model for multiple sclerosis” (PLoS ONE, 2018).)
